The values below come from US20170242014A1, “METHODS FOR TREATING SOLID TUMORS AND THE USE OF BIOMARKERS AS A PREDICTOR OF CLINICAL SENSITIVITY TO IMMUNOMODULATORY THERAPIES” (CELGENE CORPORATON, priority 2014, published 2017).

The test system of assay [1] is NF-κB activation. Conditions: read-out: IC50 of inhibition of NF-κB activation; cited from earlier work.
Assay [2] relates to ZFP91. Kind of assay: ZFP91 protein level in HCC cells Focus and JHH4 (western blot / proteomic preparation). It is filed as cell-based. The note with it: for effect on ZFP91 degradation induced by Compound A: 10 μM for 1 hour, then 5 μM Compound A for 6 hours, FIG. 5A; for level of ZFP91 protein: control plate and proteomic preparation, beta-actin control. The procedure: (§1) Both HCC cells, Focus and JHH4 in 3D setting, were cultured continuously for 15 days treated with either DMSO or Compound A, or were first cultured for about 7 days prior to treatment with either DMSO or Compound A for 24 hours or 72 hours. Cells were harvested and proteins were prepared from the cells for proteomics analysis. The growth of the cells on control plates was also analyzed. In particular, cells were plated in media containing either DMSO or Compound A. Cells were cultured for certain time, and then were harvested onto filter plates. After the plates have dried, scintillation fluid was added to the plates and read on a Top-count reader.
Focus cells were cultured for 18 days either continuously for 18 days in the medium containing DMSO, Compound A, or Compound B, or cultured for 7 days prior to treating with DMSO, Compound A, or Compound B for 11 days. Then cells were harvested and were treated in 200 μl cold cell lysis buffer (1% Triton X-100 from Cell Signaling supplemented with protease inhibitors and phophatase inhibitors from Roche) to generate cell lysate. Proteins from cell lysate were separated by 4-12% nupage gels (Invitrogen) and transferred to nitrocellulose membranes. Immunoblots were then probed with antibodies recognizing CRBN, ZFP91 (LSBio) and β-actin (Li-Cor). Signals were detected with a Li-Cor Odyssey Imager. As shown, the level of ZFP91 reduced in response to treatment with Compound A or Compound B.
(§2) HCC cells from both Focus and JHH4 cell lines in 2D setting treated with Compound A for 6 hours, 24 hours, and 72 hours, and JHH4 cells in 3D setting treated with Compound A for 15 days were also analyzed by western blot. Cells were harvested and were treated in 200 μl cold cell lysis buffer (1% Triton X-100 from Cell Signaling supplemented with protease inhibitors and phophatase inhibitors from Roche) to generate cell lysate. Proteins from cell lysate were separated by 4-12% Nupage gels (Invitrogen) and transferred to nitrocellulose membranes. Immunoblots were then probed with antibodies recognizing CRBN, ZFP91 (LSBio), P-TBK1, and β-actin (Li-Cor). Signals were detected with a Li-Cor Odyssey Imager. As shown, the level of ZFP91 reduced in response to treatment with Compound A for 6 hours, 24 hours, or 72 hours in both cell lines in 2D setting. […] The level of CRBN increased in response to treatment with Compound A for 6 hours, 24 hours, or 72 hours in both cell lines in 2D setting. […] ZFP91 degradation induced by various doses of Compound A for various time periods was also tested in both Focus and JHH4 cells, as shown in FIG. 4C.
HCC cells from both Focus and JHH4 cell lines in 2D setting were first treated with 10 μM MG132 or MLN4924 for 1 hour, and then were treated with 5 μM DMSO or 5 μM Compound A for 6 hours. Cells were harvested and were treated in cell lysis buffer to generate cell lysate. Proteins from cell lysate were separated by gel electrophoresis and transferred to nitrocellulose membranes. Immunoblots were then probed with antibodies recognizing CRBN, ZFP91 (LSBio), and β-actin (Li-Cor). The results were shown in FIG. 5A, and as shown, both 10 μM MG132 or MLN4924 inhibited ZFP91 degradation. MG132 activates c-Jun N-terminal kinase (JNK1), which initiates apoptosis. […] MLN4924 is a NAE1 inhibitor that blocks the activity of Cullin Ring Ligases (CRLs), such as CRL4CRBN.

Assay [3] has as its system ZFP91. Briefly: ZFP91 protein level in glioblastoma cell lines U87 and SNB19 (western blot). It is filed as cell-based, human. The note with it: FIG. 7A. As to the method:
The change of ZFP91 level in response to treatment compounds was evaluated in other solid tumor cell lines, e.g., giloblastoma (GBM) cell lines. […] Proteins from cell lysate were separated by electrophoresis gel and transferred to nitrocellulose membranes. Immunoblots were then probed with antibodies recognizing ZFP91 and β-actin. Signals were detected with a Li-Cor Odyssey Imager.
A general note: Immunoblotting shows a protein as a band on a membrane.

Assay [4] relates to ZFP91. Briefly: ZFP91 protein level in Hep3B cells (western blot). It is filed as cell-based, human. The note with it: for effect on reduction of ZFP91 level in response to Compound A or Compound B: FIG. 6A lower panel; for ZFP91 level (western blot): FIG. 6A upper panel. As to the method:
The change of ZFP91 level in response to Compound A or Compound B treatments was also evaluated in human hepatoma Hep3B cell lines. Hep3B cells were treated with Compound A or Compound B, and cells were harvested and treated in lysis buffer to generate cell lysate. Proteins from cell lysate were separated by electrophoresis gel and transferred to nitrocellulose membranes. Immunoblots were then probed with antibodies recognizing CRBN, ZFP91, and β-actin. Signals were detected with a Li-Cor Odyssey Imager. The results were shown in the upper panel of FIG. 6A. […] Thus, ZFP91 may be degraded in response treatment compounds regardless of growth response of the cells to the treatment compounds.

Assay [5] relates to ZFP91. Kind of assay: ZFP91 protein level in HCC cells Focus and JHH4 (western blot / proteomic preparation). The note with it: for level of ZFP91 in cells treated with cycloheximide (CHX): 100 ug/ml CHX, FIG. 5B; for effect of compound on ZFP91 degradation after knocking down of CRBN: FIG. 5C. Type of assay: cell-based.
Assay [6] deals with Hep3B cells. Kind of assay: Growth response of Hep3B cells to treatment compounds. It is filed as cell-based, human. Conditions: FIG. 6B.
For assay [7], the system named is U87 tumor. Briefly: U87 xenograft tumor growth. It is filed as in vivo. The note with it: FIG. 7B left panel.
The test system of assay [8] is HCC cell lines (excised xenograft tumors of HAK-1AJ and Focus). Kind of assay: Proteomic screening (TMT) of HCC cell lines after Compound A treatment. It is filed as cell-based. As to the method:
HCC cell lines (excised xenograft tumors of HAK-1AJ and Focus) were treated with either with DMSO, or Compound A for either once (single) or multiple times. Cells were harvested at 24 or 72 hours time points, and proteins were fractionated using a basic pH reverse gradient method. Fractionated samples were labeled using a Tandem Mass Tag (TMT) method. Relative abundance was calculated.

The subject of assay [9] is ZFP91. Kind of assay: Immunostaining of ZFP91 in U87 xenograft tissue. Type of assay: in vivo. Conditions: FIG. 7B right panel.
The subject of assay [10] is P-TBK1. Briefly: P-TBK1 level by western blot in HCC cells. Conditions: 3D setting; Compound A treatment. It is filed as cell-based. The procedure: as §2
The test system of assay [11] is Focus cells. Kind of assay: Colony growth on control plates, 3D culture. Type of assay: cell-based. Conditions: FIG. 2B. The procedure: as §1
For assay [12], the system named is JHH4 cells. Kind of assay: Colony growth on control plates, 3D culture. It is filed as cell-based. Conditions: JHH4, 3D, FIG. 3B.
Assay [13] has as its system CRBN. Kind of assay: CRBN protein level in HCC cells Focus and JHH4 (western blot / proteomic preparation). Type of assay: cell-based. Conditions: for level of CRBN (western blot): FIG. 4B; for level of CRBN protein: control plate and proteomic preparation. The procedure:
as §2, with “Both HCC cells, Focus and JHH4 in 3D setting, were cultured continuously for 15 days treated with either DMSO or Compound A, or were first cultured for about 7 days prior to treatment with either DMSO or Compound A for 24 hours or 72 hours. Cells were harvested and proteins were prepared from the cells for proteomics analysis. The growth of the cells on control plates was also analyzed. In particular, cells were plated in media containing either DMSO or Compound A. Cells were cultured for certain time, and then were harvested onto filter plates. After the plates have dried, scintillation fluid was added to the plates and read on a Top-count reader. HCC” for “HCC”

[14] abbreviates: Focus cells, 18 days continuous or 7 days culture then 11 days treatment, FIG. 4A.
[15] abbreviates: proteomic screening vs DMSO, harvested at 24 or 72 hours.

Entries after “also recorded” stand apart in the source; their conditions may differ. Peptide text beside a SMILES is read from it. * marks the point of attachment. Cbz = O=C(OCc1ccccc1)*

As to `CC(C)C[C@@H](C=O)NC(=O)[C@H](CC(C)C)NC(=O)[C@H](CC(C)C)NC(=O)OCc1ccccc1` [MG132, reference compound] (Cbz-Leu-Leu-Leu-aldehyde), the IC50 (commonly the concentration needed to halve the response being measured) in [1] is 3 µM. The “effect on ZFP91 degradation induced by Compound A” value is “block; also recorded: inhibited” in assay [2] (Focus, 2D) and “block; also recorded: inhibited” in [2] (JHH4, 2D). Besides, the “effect on reduction of ZFP91 level in response to treatment compounds” value in [3] (SNB19 cells) and in assay [3] (U87 cells) was “blocked” each time. Moreover, the “effect on reduction of ZFP91 level in response to Compound A or Compound B” value in assay [4] is listed as “blocked”.
Take `NS(=O)(=O)OC[C@@H]1C[C@@H](n2ccc3c(N[C@H]4CCc5ccccc54)ncnc32)C[C@@H]1O` [MLN4924, reference compound]: the “effect on ZFP91 degradation induced by Compound A” value in assay [5] (JHH4, 2D, 10 μM for 1 hour, then 5 μM Compound A for 6 hours, FIG. 5A, listed as MLN) was “block”; in assay [2] (Focus, 2D), “inhibited”; in assay [2] (Focus, 2D, listed as MLN), “block”; in [2] (JHH4, 2D) it was “inhibited”. Moreover, the “effect on reduction of ZFP91 level in response to treatment compounds” value in assay [3] (SNB19 cells) and in assay [3] (U87 cells) was “blocked” throughout. Moreover, in assay [4], the “effect on reduction of ZFP91 level in response to Compound A or Compound B” value is “blocked”.
`O=C1CCC(N2Cc3c(OCc4ccc(CN5CCOCC5)cc4)cccc3C2=O)C(=O)N1` (centres unmarked) [Compound B, 3-[4-(4-Morpholin-4-ylmethyl-benzyloxy)-1-oxo-1,3-dihydro-isoindol-2-yl]-piperidine-2,6-dione]: the “effect of compound on ZFP91 protein level after knocking down of CRBN” value in assay [5] (CRBN knock-down, cell line not stated, FIG. 5D) is reported as “reversed”. The “sensitivity of Hep3B cells (growth response)” value in [6] is listed as “sensitive”. Also, the “level of ZFP91 (western blot)” value in assay [2] (setting [14]) is recorded as “reduced”. In addition, the “ZFP91 level (western blot)” value in assay [4] is given as “down-regulated”.
Turning to `Cc1nc2cccc(N)c2c(=O)n1C1CCC(=O)NC1=O` (centres unmarked) [Compound A, 3-(5-amino-2-methyl-4-oxo-4H-quinazolin-3-yl)-piperidine-2,6-dione], the U87 tumor growth entry in [7] (3 mg/kg qd) and in assay [7] (30 mg/kg qd) was “significantly inhibits” throughout. Further, the “proteins commonly differentially abundant in both Focus and HAK-1AJ cell lines” value in assay [8] (24 hours after treatment, FIG. 1C) was “WIBG, KAT1, Nestin, PARP4, and MVP”. The “proteins downregulated in response to Compound A treatment” value in assay [8] (setting [15]) was “MVP, PARP4, ZFP91, and ZNF198”. The “proteins upregulated in response to Compound A treatment” value in [8] (setting [15]) was “Nestin, KAT1/CCBL1, and WIBG”. In assay [9], the “ZFP91 in U87 xenograft tissue (immunostaining)” value is reported as “degraded”. Further, the “P-TBK1 level (western blot)” value in [10] is “upregulated”. In addition, the colony number entry in assay [11] and in assay [12] was “reduced” throughout. For the same compound, the total colony area entry in assay [11] and in assay [12] was “reduced” throughout. Also, the “level of CRBN (western blot)” value in assay [13] (Focus, 2D setting, 6 hours, 24 hours, or 72 hours) is recorded as “increased”; in [13] (JHH4, 2D setting, 6 hours, 24 hours, or 72 hours) it was “increased”; in assay [13] (JHH4, 3D setting, 15 days), “increased”. Further, the “level of CRBN protein” value in assay [13] (Focus, 3D, FIG. 2A) was “increased”; in assay [13] (JHH4, 3D, FIG. 3A) it was “increased”. The “level of ZFP91 in cells treated with cycloheximide (CHX)” value in assay [5] (Focus) and in assay [5] (JHH4) was “decreased” throughout. Moreover, the “effect of compound on ZFP91 degradation after knocking down of CRBN” value in [5] (Focus, CRBN knock-down) is “reversed”; in assay [5] (JHH4, CRBN knock-down), “reversed”. In addition, the “sensitivity of Hep3B cells (growth response)” value in [6] was “not”. Moreover, the “level of ZFP91 (western blot)” value is on record as “reduced” in [2] (setting [14]); “reduced” in assay [2] (Focus, 2D setting, 6 hours, 24 hours, or 72 hours, FIG. 4B); “reduced” in assay [2] (JHH4, 2D setting, 6 hours, 24 hours, or 72 hours, FIG. 4B); “reduced” in assay [2] (JHH4, 3D setting, 15 days, FIG. 4B). For the same compound, the “level of ZFP91 protein” value is listed as “reduced” in assay [2] (Focus, 3D, FIG. 2A) and “reduced” in [2] (JHH4, 3D, FIG. 3A). In addition, the “ZFP91 level (western blot)” value in [3] (SNB19 cells), in assay [3] (U87 cells) and in assay [4] was “down-regulated” in each case.
